Results reported in patent publication US11180494B2, “Substituted amino acids as integrin inhibitors” (Pliant Therapeutics, Inc., priority 2018, dated 2021).

Molecular target: human integrin αvβ6 (Homo sapiens (Human), UniProt P06756+P18564)
Test: Proximity-based integrin receptor binding assay (ALPHASCREEN) for inhibitor potency
Settings: inhibition of binding of TGF-b1 LAP to human integrin αvβ6; values given in ranges
How it was run: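 AlphaScreen: integrin, compound, TGF-b1 LAP, biotinylated anti-LAP antibody and acceptor beads incubated 2 hours, then streptavidin donor beads 30 minutes, at room temperature in 50 mM Tris-HCl pH 7.5, 0.1% BSA, 1 mM CaCl2 and MgCl2. Excitation 680 nm, emission 520-620 nm; IC50 by four-parameter logistic fit.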

Chain of human integrin αvβ6 (P06756 31-992): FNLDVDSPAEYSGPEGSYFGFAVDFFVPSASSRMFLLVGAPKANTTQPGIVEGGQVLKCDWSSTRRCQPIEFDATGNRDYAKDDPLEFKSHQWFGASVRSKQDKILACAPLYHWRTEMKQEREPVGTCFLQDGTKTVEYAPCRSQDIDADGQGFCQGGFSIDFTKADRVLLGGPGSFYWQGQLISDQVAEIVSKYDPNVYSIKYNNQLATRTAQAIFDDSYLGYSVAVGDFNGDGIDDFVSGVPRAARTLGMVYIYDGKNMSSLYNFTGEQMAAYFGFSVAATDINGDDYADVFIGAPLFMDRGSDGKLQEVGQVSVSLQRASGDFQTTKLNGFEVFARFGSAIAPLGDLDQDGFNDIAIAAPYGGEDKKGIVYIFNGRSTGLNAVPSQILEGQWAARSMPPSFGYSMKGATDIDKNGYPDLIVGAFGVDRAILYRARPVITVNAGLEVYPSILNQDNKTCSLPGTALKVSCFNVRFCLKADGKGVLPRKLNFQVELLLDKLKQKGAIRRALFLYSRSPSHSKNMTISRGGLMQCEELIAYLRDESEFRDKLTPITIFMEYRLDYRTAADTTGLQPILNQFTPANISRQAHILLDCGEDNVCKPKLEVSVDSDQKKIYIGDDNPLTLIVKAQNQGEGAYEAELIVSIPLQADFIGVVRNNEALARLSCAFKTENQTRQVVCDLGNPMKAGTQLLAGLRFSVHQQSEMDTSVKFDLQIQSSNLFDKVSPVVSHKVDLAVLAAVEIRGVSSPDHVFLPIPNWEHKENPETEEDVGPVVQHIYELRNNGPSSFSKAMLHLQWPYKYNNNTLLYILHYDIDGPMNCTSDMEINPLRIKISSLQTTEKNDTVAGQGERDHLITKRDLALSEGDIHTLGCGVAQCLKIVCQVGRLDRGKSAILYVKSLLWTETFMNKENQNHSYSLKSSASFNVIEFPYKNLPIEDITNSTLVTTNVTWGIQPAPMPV
Chain of human integrin αvβ6 (P18564 22-707): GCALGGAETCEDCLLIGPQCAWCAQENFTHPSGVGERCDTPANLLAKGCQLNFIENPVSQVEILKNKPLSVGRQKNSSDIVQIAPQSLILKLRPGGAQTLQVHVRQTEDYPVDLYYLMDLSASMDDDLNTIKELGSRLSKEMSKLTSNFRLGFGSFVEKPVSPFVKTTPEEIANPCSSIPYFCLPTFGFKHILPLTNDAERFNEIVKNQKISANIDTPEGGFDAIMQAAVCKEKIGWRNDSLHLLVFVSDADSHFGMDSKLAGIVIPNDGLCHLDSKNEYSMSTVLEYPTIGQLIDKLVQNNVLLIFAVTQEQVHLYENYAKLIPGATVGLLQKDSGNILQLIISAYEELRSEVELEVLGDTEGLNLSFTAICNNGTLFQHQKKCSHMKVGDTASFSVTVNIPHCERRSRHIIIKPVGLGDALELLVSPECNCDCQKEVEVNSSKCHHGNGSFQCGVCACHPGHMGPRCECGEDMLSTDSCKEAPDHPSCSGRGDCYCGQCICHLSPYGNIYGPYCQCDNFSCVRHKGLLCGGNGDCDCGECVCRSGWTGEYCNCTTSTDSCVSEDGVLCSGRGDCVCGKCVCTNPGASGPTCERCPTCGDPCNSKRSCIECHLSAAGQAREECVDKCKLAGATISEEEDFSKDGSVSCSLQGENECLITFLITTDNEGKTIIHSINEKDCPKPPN

Row | SMILES | IC50 [nM]
1 | O=C(N[C@@H](CCO[C@H]1C[C@H](CCc2ccc3c(n2)NCCC3)C1)C(=O)O)O[C@H]1CC[C@@H](c2ccccc2)CC1 [Compound 149, N-(((cis-4-phenylcyclohexyl)oxy)carbonyl)-O-(trans-3-(2-(5,6,7,8-tetrahydro-1,8-naphthyridin-2-yl)ethyl)cyclobutyl)homoserine] | 50 to 250
2 | CC(=O)N1CC(OC(=O)N[C@@H](CCO[C@H]2C[C@H](CCc3ccc4c(n3)NCCC4)C2)C(=O)O)C1 [Compound 150, N-(((1-acetylazetidin-3-yl)oxy)carbonyl)-O-(trans-3-(2-(5,6,7,8-tetrahydro-1,8-naphthyridin-2-yl)ethyl)cyclobutyl)homoserine] | 250 to 1000
3 | CC(=O)NC[C@H](C)OC(=O)N[C@@H](CCO[C@H]1C[C@H](CCc2ccc3c(n2)NCCC3)C1)C(=O)O [Compound 151, N—((((S)-1-acetamidopropan-2-yl)oxy)carbonyl)-O-(trans-3-(2-(5,6,7,8-tetrahydro-1,8-naphthyridin-2-yl)ethyl)cyclobutyl)homoserine] | < 50
4 | C[C@@H](CNC(=O)OC(C)(C)C)OC(=O)N[C@@H](CCO[C@H]1C[C@H](CCc2ccc3c(n2)NCCC3)C1)C(=O)O [Compound 152, N—((((S)-1-((tert-butoxycarbonyl)amino)propan-2-yl)oxy)carbonyl)-O-(trans-3-(2-(5,6,7,8-tetrahydro-1,8-naphthyridin-2-yl)ethyl)cyclobutyl)homoserine] | < 50
5 | C[C@H](CNC(=O)OC(C)(C)C)OC(=O)N[C@@H](CCO[C@H]1C[C@H](CCc2ccc3c(n2)NCCC3)C1)C(=O)O [Compound 153, N—((((R)-1-((tert-butoxycarbonyl)amino)propan-2-yl)oxy)carbonyl)-O-(trans-3-(2-(5,6,7,8-tetrahydro-1,8-naphthyridin-2-yl)ethyl)cyclobutyl)homoserine] | < 50
6 | CC(=O)NC[C@@H](C)OC(=O)N[C@@H](CCO[C@H]1C[C@H](CCc2ccc3c(n2)NCCC3)C1)C(=O)O [Compound 154, N—((((R)-1-acetamidopropan-2-yl)oxy)carbonyl)-O-(trans-3-(2-(5,6,7,8-tetrahydro-1,8-naphthyridin-2-yl)ethyl)cyclobutyl)homoserine] | 250 to 1000
7 | CC(C)(C)OC(=O)N1CC(OC(=O)N[C@@H](CCO[C@H]2C[C@H](CCc3ccc4c(n3)NCCC4)C2)C(=O)O)(c2cccc(Cl)c2)C1 [Compound 157, N-(((1-(tert-butoxycarbonyl)-3-(3-chlorophenyl)azetidin-3-yl)oxy)carbonyl)-O-(trans-3-(2-(5,6,7,8-tetrahydro-1,8-naphthyridin-2-yl)ethyl)cyclobutyl)homoserine] | < 50
8 | CC(C)c1ccc(C2(OC(=O)N[C@@H](CCO[C@H]3C[C@H](CCc4ccc5c(n4)NCCC5)C3)C(=O)O)CN(C(=O)OC(C)(C)C)C2)cc1 [Compound 158, N-(((1-(tert-butoxycarbonyl)-3-(4-isopropylphenyl)azetidin-3-yl)oxy)carbonyl)-O-(trans-3-(2-(5,6,7,8-tetrahydro-1,8-naphthyridin-2-yl)ethyl)cyclobutyl)homoserine] | < 50
9 | CC(C)(C)OC(=O)N1CC(C#Cc2ccccc2)(OC(=O)N[C@@H](CCO[C@H]2C[C@H](CCc3ccc4c(n3)NCCC4)C2)C(=O)O)C1 [Compound 159, N-(((1-(tert-butoxycarbonyl)-3-(phenylethynyl)azetidin-3-yl)oxy)carbonyl)-O-(trans-3-(2-(5,6,7,8-tetrahydro-1,8-naphthyridin-2-yl)ethyl)cyclobutyl)homoserine] | < 50
10 | CC(C)(C)OC(=O)N1CCC(C(=O)N[C@@H](CCO[C@H]2C[C@H](CCc3ccc4c(n3)NCCC4)C2)C(=O)O)CC1 [Compound 160, N-(1-(tert-butoxycarbonyl)piperidine-4-carbonyl)-O-(trans-3-(2-(5,6,7,8-tetrahydro-1,8-naphthyridin-2-yl)ethyl)cyclobutyl)homoserine] | 50 to 250
